# Test results as given in ChEMBL document CHEMBL3352793, “Discovery of pyrrolo-benzo-1,4-diazines as potent Na(v)1.7 sodium channel blockers” (Bioorg Med Chem Lett, 2014).
# What was measured:
# in vivo = conditions: rat, po, 10 mg/kg
# Rattus norvegicus = organism: Rattus norvegicus; conditions: in vivo, po, 10 mg/kg, 6 h
# [1] = Terminal half life in rat at 3 mg/kg, iv; format: ADME, organism-based; design: dose 3 mg/kg, route intravenous; conditions: in vivo, read-out: beta t1/2 (converted)
# [2] = AUC (0 to 24 hrs) in rat at 3 mg/kg, iv; format: ADME, organism-based; design: time < 24 hr, dose 3 mg/kg, route intravenous; conditions: plasma
# [3] = Mean residence time in rat at 10 mg/kg, po; format: ADME, organism-based; design: dose 10 mg/kg, route oral; conditions: in vivo
# Brain = assay: Drug uptake in rat brain at 10 mg/kg, po; format: ADME, organism-based; design: dose 10 mg/kg, route oral; conditions: in vivo
# [4] = Cmax in rat at 10 mg/kg, po; format: ADME, organism-based; design: dose 10 mg/kg, route oral; conditions: in vivo
# [5] = Oral bioavailability in rat at 10 mg/kg; format: ADME, organism-based; conditions: in vivo
# [6] = Clearance in rat at 3 mg/kg, iv; format: ADME, organism-based; design: dose 3 mg/kg, route intravenous; conditions: in vivo
# [7] = AUC (0 to 24 hrs) in rat at 10 mg/kg, po; format: ADME, organism-based; design: time < 24 hr, dose 10 mg/kg, route oral; conditions: plasma
# [8] = Tmax in rat at 10 mg/kg, po; format: ADME, organism-based; design: dose 10 mg/kg, route oral; conditions: in vivo
# [9] = Mean residence time in rat at 3 mg/kg, iv; format: ADME, organism-based; design: dose 3 mg/kg, route intravenous; conditions: in vivo
# [10] = Volume of distribution at steady state in rat at 3 mg/kg, iv; format: ADME, organism-based; design: dose 3 mg/kg, route intravenous; conditions: in vivo, read-out: Vdss
SMILES,AUC(0-t) at 6 h (in vivo; in vivo) [µM·h],also measured
N#Cc1ccc(C(=O)N2CCC3(CC2)Nc2ccccc2-n2cccc23)cc1,1.01,–
CN(C)c1cccc(C(=O)N2CCC3(CC2)Nc2ccccc2-n2cccc23)c1,0.633,–
Cc1cc(C)cc(C(=O)N2CCC3(CC2)Nc2ccccc2-n2cccc23)c1,–,AUC (Rattus norvegicus): 0 µM·h
COc1ccc2c(c1)NC1(CCN(C(=O)c3ccc(C#N)cc3)CC1)c1cccn1-2,51.1,–
N#Cc1ccc(C(=O)N2CCC3(CC2)Nc2cc(OC(F)(F)F)ccc2-n2cccc23)cc1,11.7,–
N#Cc1ccc(C(=O)N2CCC3(CC2)Nc2cc(C(F)(F)F)ccc2-n2cccc23)cc1,15.2,–
N#Cc1ccc(C(=O)N2CCC3(CC2)Nc2cc(Cl)ccc2-n2cccc23)cc1,2.9,–
N#Cc1ccc(C(=O)N2CCC3(CC2)Nc2ccc(F)cc2-n2cccc23)cc1,12,–
N#Cc1ccc(C(=O)N2CCC3(CC2)Nc2ccc(Cl)cc2-n2cccc23)cc1,26.1,–
N#Cc1ccc(C(=O)N2CCC3(CC2)Nc2ccc(Br)cc2-n2cccc23)cc1,23.4,–
COc1ccc2c(c1)NC1(CCN(C(=O)c3cccc(C)c3)CC1)c1cccn1-2,–,AUC (Rattus norvegicus): 0 µM·h
COc1ccc2c(c1)NC1(CCN(C(=O)c3cccc(Cl)c3)CC1)c1cccn1-2,–,AUC (Rattus norvegicus): 0 µM·h
COc1ccc2c(c1)NC1(CCN(C(=O)c3cccc(C#N)c3)CC1)c1cccn1-2,0.783,–
COc1ccc2c(c1)NC1(CCN(C(=O)OCc3ccccc3)CC1)c1cccn1-2,13.1,–
COc1ccc2c(c1)NC1(CCN(Cc3ccccc3)CC1)c1cccn1-2,0.37,–
COc1ccc2c(c1)NC1(CCN(C(=O)c3ccccc3OC)CC1)c1cccn1-2,–,AUC (Rattus norvegicus): 0 µM·h
COc1cccc(C(=O)N2CCC3(CC2)Nc2cc(OC)ccc2-n2cccc23)c1,–,AUC (Rattus norvegicus): 0 µM·h
COc1ccc(C(=O)N2CCC3(CC2)Nc2cc(OC)ccc2-n2cccc23)cc1,91.5,–
COc1ccc2c(c1)NC1(CCN(C(=O)c3ccc(C)cc3)CC1)c1cccn1-2,17.2,–
COc1ccc2c(c1)NC1(CCN(C(=O)c3ccc(Cl)cc3)CC1)c1cccn1-2,1.96,–
COc1ccc2c(c1)NC1(CCN(C(=O)c3ccc(N(C)C)cc3)CC1)c1cccn1-2,9.44,–
COc1ccc2c(c1)NC1(CCN(C(=O)c3ccc(C#N)c(OC)c3)CC1)c1cccn1-2,26.6,–
COc1ccc2c(c1)NC1(CCN(C(=O)c3ccc(N(C)C)c(Cl)c3)CC1)c1cccn1-2,1.27,–
COc1ccc2c(c1)NC1(CCN(C(=O)c3ccc(OC)c(Cl)c3)CC1)c1cccn1-2,6.81,–
COc1ccc2c(c1)NC1(CCN(C(=O)c3ccc(OC)c(N(C)C)c3)CC1)c1cccn1-2,–,half-life [1]: 2.9 h; AUC(0-t) at 24 h [2]: 17.4 µM·h; AUC(0-t) at 6 h (in vivo; plasma): 20.3 µM·h; MRT [3]: 4.7 h; Drug uptake (Brain): 257 ng/g; Cmax [4]: 9.3 µM; bioavailability [5]: 100%; clearance [6]: 6.5 mL/min/kg; AUC(0-t) at 24 h [7]: 65.9 µM·h; Tmax [8]: 1.3 h; MRT [9]: 3 h; Vd [10]: 1.2 L/kg
COc1ccc2c(c1)NC1(CCN(C(=O)c3cc(C)cc(C)c3)CC1)c1cccn1-2,0.788,–
